Source: ChEMBL document CHEMBL1144034, “Synthesis and anti-protozoal activity of C2-substituted polyazamacrocycles” (Bioorg Med Chem Lett, 2008)

Legend:
Trypanosoma brucei = experiment: Antiprotozoal activity against Trypanosoma brucei by Alamar blue assay; format: functional, organism-based
[1] = Cytotoxicity against HEK cells; format: cell-based; details: Homo sapiens, HEK293
[2] = Partition coefficient, log P of the compound; format: physicochemical; details: octanol/water
Plasmodium falciparum = experiment: Antiprotozoal activity against Plasmodium falciparum; format: functional, organism-based

Compound	EC50 (Trypanosoma brucei)	logP [2]	EC50 (Plasmodium falciparum)	EC50 [1]
O=[N+]([O-])c1ccc(C2CNCCNCCNCCN2)cc1 (configuration not stated)	> 200 µM	-0.4	13 µM	> 200 µM
c1ccc2c(c1)ccc1cc(C3CNCCNCCNCCN3)ccc12 (configuration not stated)	–	2.2	< 1.5 µM	–
FC(F)(F)c1cc(C2CNCCNCCNCCN2)cc(C(F)(F)F)c1 (configuration not stated)	6.8 µM	1.7	4.8 µM	61 µM
CCN(CC)CCCC(C)Nc1ccnc2cc(Cl)ccc12 (configuration not stated) [CHLOROQUINE]	–	–	0.008 µM	–
Clc1ccc(C2CNCCNCCNCCN2)cc1 (configuration not stated)	2.8 µM	0.8	2.3 µM	181 µM
N=C(N)c1ccc(OCCCCCOc2ccc(C(=N)N)cc2)cc1 [PENTAMIDINE]	0.006 µM	–	–	–
c1ccc2c(c1)Cc1cc(C3CNCCNCCNCCN3)ccc1-2 (configuration not stated)	2.6 µM	1.8	1.3 µM	26 µM
FC(F)(F)c1ccc(C2CNCCNCCNCCN2)cc1 (configuration not stated)	6.8 µM	0.8	5 µM	73 µM
c1ccc2cc(C3CNCCNCCNCCN3)ccc2c1 (configuration not stated)	6.9 µM	1	1.7 µM	> 200 µM
COc1ccc(C2CNCCNCCNCCN2)cc1 (configuration not stated)	> 200 µM	-0.1	26 µM	> 200 µM

The next lines start with results.

EC50 (Trypanosoma brucei)	logP [2]	EC50 (Plasmodium falciparum)	Compound	EC50 [1]
133 µM	-0.1	> 100 µM	CC(C)(C)C1CNCCNCCNCCN1 (configuration not stated)	> 200 µM
> 200 µM	-0.2	26 µM	c1ccc(C2CNCCNCCNCCN2)cc1 (configuration not stated)	> 200 µM
21.8 µM	0.7	5.8 µM	Brc1ccc(C2CNCCNCCNCCN2)cc1 (configuration not stated)	> 200 µM
> 200 µM	-1.8	> 100 µM	C1CNCCNCCNCCN1	5 µM
72.3 µM	-0.4	46.7 µM	c1csc(C2CNCCNCCNCCN2)c1 (configuration not stated)	> 200 µM
